Results published in patent publication US11236052B2, “Aminobenzimidazole derivatives, treatments, and methods of inhibiting histone deacetylase” (TRANSLATIONAL DRUG DEVELOPMENT, LLC, priority 2017, dated 2022).

Tests used:
RAMOS = assay: CellTiter-Glo cell viability assay, RAMOS; assay type: cell-based; settings: Lymphoma; for IC50: Homo sapiens, 72 hours
Description: (§1) Cell Viability Assay—Cell viability was measured by the CellTiter-Glo® cell viability assay Promega (Madison, Wis.). The CellTiter-Glo® Luminescent Cell Viability Assay is a homogeneous method to determine the number of viable cells in culture based on quantitation of the ATP present, which signals the presence of metabolically active cells. Following treatment, CellTiter-Glo® is added to treatment wells and incubated at 37° C. luminescence values were measured at using a Molecular Devices Spectramax microplate reader.
(§2) Single Agent Studies—Cells were grown to 70% confluency, trypsinized, counted, and seeded in 96 well flat-bottom plates at a final concentration of 2.5×10^3-5×10^3 cells/well (Day 0). Cells were allowed to incubate in growth media for 24 hours. Treatment with the test agents began on Day 1 and continued for 72 hours. At the 72-hour time point, treatment-containing media was removed. Viable cell numbers are quantified by the CellTiter-Glo® cell viability assay as described above. Experiments were run with triplicate concentrations to determine growth inhibitory activity. Results from these studies were used to calculate an IC50 value (concentration of drug that inhibits cell growth by 50 percent of control) for each compound.
(§3) Data Collection—For single agent and combination studies, data from each experiment was collected and expressed as % Cell Growth using the following calculation: % Cell Growth=(ftest/fvehicle)×100
(§4) Where ftest is the luminescence of the tested sample, and fvehicle is the luminescence of the vehicle in which the drug is dissolved. Dose response graphs and IC50 values were generated using Prism 6 software (GraphPad).

OCI-LY3 = assay: CellTiter-Glo cell viability assay, OCI-LY3; assay type: cell-based; settings: Lymphoma; for IC50: Homo sapiens, OCI-LY3, 72 hours
Description: as §1, §2, §3, §4

U251 = assay: CellTiter-Glo cell viability assay, U251; assay type: cell-based; settings: GBM; for IC50: Homo sapiens, U-251, U251, 72 hours
Description: as §1, §2, §3, §4

MDA-157 = assay: CellTiter-Glo cell viability assay, MDA-157; assay type: cell-based; settings: Breast; for IC50: MDA-157, 72 hours
Description: as §1, §2, §3, §4

% PPB, rat = assay type: in vitro ADME; settings: plasma; rat (r)
[1] = tested on: MM1.S human myeloma cells; assay: Human MM1.S xenograft model, combination screening with pomalidomide/dexamethasone; assay type: in vivo, mice; settings: 100 mg/kg daily for 19 days oral plus pomalidomide 10 mg/kg / dexamethasone 0.3 mg/kg; compared to ID #2 or ID #3 combinations
Description: Group 3 (G3) was treated with Compound ID #1 at 100 mg/kg daily for 19 days. Group 4 (G4) was treated with Compound ID #2 at 100 mg/kg daily for 19 days. Group 5 (G5) was treated with Compound ID #3 at 100 mg/kg daily for 19 days. […] Vehicle and Compound ID #1, Compound ID #2 and Compound ID #3 were administered orally via oral gavage. Body weights and tumor measurements were collected twice weekly.

RS4-11 = assay: CellTiter-Glo cell viability assay, RS4-11; assay type: cell-based; settings: ALL; for IC50: Homo sapiens, RS4-11, 72 hours
Description: as §1, §2, §3, §4

[2] = tested on: MM1.S human myeloma cells; assay: Human MM1.S xenograft model, single agent screening; assay type: in vivo, mice; settings: 100 mg/kg daily for 19 days, oral gavage; compared to Compound ID #2 or Compound ID #3
Description: In vivo efficacy studies of Compound ID #1, Compound ID #2, and Compound ID #3 were tested in human MM1.S xenograft model as shown in FIG. 1. […] Group 2 (G2) was treated with Compound ID #1 at 100 mg/kg daily for 19 days. Group 3 (G3) was treated with Compound ID #2 at 100 mg/kg daily for 19 days. Group 4 (G4) was treated with Compound ID #3 at 100 mg/kg daily for 19 days. Vehicle and Compound ID #1, Compound ID #2 and Compound ID #3 were administered orally via oral gavage. Body weights and tumor measurements were collected twice weekly.

% PPB, mouse = assay type: in vitro ADME; settings: plasma; mouse (m)
SKUT-1B = assay: CellTiter-Glo cell viability assay, SKUT-1B; assay type: cell-based; settings: Uterine; for IC50: Homo sapiens, Skut1B, 72 hours
Description: as §1, §2, §3, §4

Raji = assay: CellTiter-Glo cell viability assay, Raji; assay type: cell-based; settings: Lymphoma; for IC50: Homo sapiens, 72 hours
Description: as §1, §2, §3, §4

H929 = assay: CellTiter-Glo cell viability assay, H929; assay type: cell-based; settings: Myeloma; for IC50: Homo sapiens, NCI-H929, H929, 72 hours
Description: as §1, §2, §3, §4

Toledo = assay: CellTiter-Glo cell viability assay, Toledo; assay type: cell-based; settings: Lymphoma; for IC50: Homo sapiens, 72 hours
Description: as §1, §2, §3, §4

H460 = assay: CellTiter-Glo cell viability assay, H460; assay type: cell-based; settings: NSCLC; for IC50: Homo sapiens, NCI-H460, H460, 72 hours
Description: as §1, §2, §3, §4

MFE296 = assay: CellTiter-Glo cell viability assay, MFE296; assay type: cell-based; settings: Uterine; for IC50: Homo sapiens, MFE-296, MFE296, 72 hours
Description: as §1, §2, §3, §4

Ishikawa = assay: CellTiter-Glo cell viability assay, Ishikawa; assay type: cell-based; settings: Uterine; for IC50: Homo sapiens, 72 hours
Description: as §1, §2, §3, §4

GIST48 = assay: CellTiter-Glo cell viability assay, GIST48; assay type: cell-based; settings: GIST; for IC50: Homo sapiens, GIST48, 72 hours
Description: as §1, §2, §3, §4

JEKO = assay: CellTiter-Glo cell viability assay, JEKO; assay type: cell-based; settings: Lymphoma; for IC50: 72 hours
Description: as §1, §2, §3, §4

With `O=C(NO)c1ccc(Nc2nc3ccccc3n2CC2CCCCC2)cc1` [ID #1, 4-((1-(cyclohexylmethyl)-1H-benzo[d]imidazol-2-yl)amino)-N-hydroxybenzamide] the IC50 (RAMOS) was 1380 nM, the “Improvement ID #1 over ID #3 Percent” value (RAMOS) was 52.08% and the “Improvement ID #1 over ID #3 fold” value (RAMOS) was 2.09 fold. The IC50 (OCI-LY3) was 1050 nM, the “Improvement ID #1 over ID #3 Percent” value (OCI-LY3; OCI-LY3) was 54.15% and the “Improvement ID #1 over ID #3 fold” value (OCI-LY3; OCI-LY3) was 2.18 fold. The “Improvement ID #1 over ID #3 Percent” value (U251; U251) was 61.18%, the “Improvement ID #1 over ID #3 fold” value (U251; U251) was 2.58 fold and the IC50 (U251) was 1580 nM. For the same molecule, the “Improvement ID #1 over ID #3 Percent” value (MDA-157; MDA-157) was 63.77%, the “Improvement ID #1 over ID #3 fold” value (MDA-157; MDA-157) was 2.76 fold and the IC50 (MDA-157) was 2750 nM. The fraction unbound (% PPB, rat) was 0.0017, the “anticancer activity (tumor volume) when combined with pomalidomide/dexamethasone” value [1] was “significantly superior anticancer activity” and the “Improvement ID #1 over ID #3 Percent” value (RS4-11; RS4-11) was 54.92%. For the same molecule, the “Improvement ID #1 over ID #3 fold” value (RS4-11; RS4-11) was 2.22 fold, the IC50 (RS4-11) was 1100 nM and the “anticancer activity (tumor volume)” value [2] was “significantly superior anticancer activity”. The fraction unbound (% PPB, mouse) was 0.0045, the IC50 (SKUT-1B) was 2510 nM and the “Improvement ID #1 over ID #3 Percent” value (SKUT-1B) was 63.73%. For the same molecule, the “Improvement ID #1 over ID #3 fold” value (SKUT-1B) was 2.76 fold, the IC50 (Raji) was 1830 nM and the “Improvement ID #1 over ID #3 Percent” value (Raji) was 62.11%. The “Improvement ID #1 over ID #3 fold” value (Raji) was 2.64 fold, the IC50 (H929) was 830 nM and the “Improvement ID #1 over ID #3 Percent” value (H929; H929) was 39.86%. For the same molecule, the “Improvement ID #1 over ID #3 fold” value (H929; H929) was 1.66 fold, the IC50 (Toledo) was 810 nM and the “Improvement ID #1 over ID #3 Percent” value (Toledo) was 74.77%. For the same molecule, the “Improvement ID #1 over ID #3 fold” value (Toledo) was 3.96 fold, the IC50 (H460) was 3470 nM and the “Improvement ID #1 over ID #3 Percent” value (H460; H460) was 66.86%. The “Improvement ID #1 over ID #3 fold” value (H460; H460) was 3.02 fold, the IC50 (MFE296) was 4370 nM and the “Improvement ID #1 over ID #3 Percent” value (MFE296; MFE296) was 65.29%. For the same molecule, the “Improvement ID #1 over ID #3 fold” value (MFE296; MFE296) was 2.88 fold, the IC50 (Ishikawa) was 1700 nM and the “Improvement ID #1 over ID #3 Percent” value (Ishikawa) was 61.10%. For the same molecule, the “Improvement ID #1 over ID #3 fold” value (Ishikawa) was 2.57 fold, the “Improvement ID #1 over ID #3 Percent” value (GIST48; GIST48) was 68.87% and the “Improvement ID #1 over ID #3 fold” value (GIST48; GIST48) was 3.21 fold. For the same molecule, the IC50 (GIST48) was 1320 nM, the “Improvement ID #1 over ID #3 Percent” value (JEKO) was 56.31% and the “Improvement ID #1 over ID #3 fold” value (JEKO) was 2.29 fold. For the same molecule, the IC50 (JEKO) was 970 nM.

With `O=C(NO)c1ccc(Nc2nc3ccccc3n2C2CCCCCC2)cc1` [ID #3, 4-((1-cycloheptyl-1H-benzo[d]imidazol-2-yl)amino)-N-hydroxybenzamide] the IC50 (RAMOS) was 2880 nM, the IC50 (OCI-LY3) was 2290 nM and the IC50 (U251) was 4070 nM. For the same molecule, the IC50 (MDA-157) was 7590 nM, the fraction unbound (% PPB, rat) was 0.0055 and the IC50 (RS4-11) was 2440 nM. It also gave a fraction unbound (% PPB, mouse) of 0.0052, an IC50 (SKUT-1B) of 6920 nM and an IC50 (Raji) of 4830 nM. It also gave an IC50 (H929) of 1380 nM, an IC50 (Toledo) of 3210 nM and an IC50 (H460) of 10500 nM. The IC50 (MFE296) was 12600 nM, the IC50 (Ishikawa) was 4370 nM and the IC50 (GIST48) was 4240 nM. It also gave an IC50 (JEKO) of 2220 nM.
